Data from patent publication US9884881B2, “Chelates of lead (II) and bismuth (III) based on trans-di-N-picolinate tetraazacycloalkanes” (CNRS—CENTRE NATIONAL DE LA RECHERCHE SCIENTIFIQUE, priority 2013, dated 2018).

How the values were obtained:
[1] = In vitro stability of the radio-labeled chelate in human plasma; assay type: in vitro ADME
Protocol: The stability of the serum and of the in vitro chelate were also studied by TLC and by HPLC.
For the stability of the serum, 200 μL of radiomarked Me-DODPA^2− solution (activity: 1 MBq, radiochemical purity: 95%) were mixed with 800 μL of human plasma. The plasma stability values were controlled in comparison with free ^213Bi, after 1 and 2 hours of incubation (about 1 and 2 half-lives) at ambient temperature by direct gel permeation chromatography on plasma in a PD-10 column and by TLC analysis of this supernatant after precipitation of the plasma proteins with ammonium sulfate. The TLC analysis was performed under the same conditions as earlier. After precipitation, the activity in the precipitate was measured (78.8%) as also the activity in the supernatant ([…]).

[2] = 1H NMR competition with DOTA for complexation of bismuth (III); assay type: physicochemical
Protocol: As regards the chelate of Me-DODPA and bismuth (III) or DODPA and bismuth (III), the thermodynamic stability constants were evaluated by NMR ^1H (in a concentration of 10^−2 M) in studying the competitivity of the complexation of bismuth (III) with Me-DODPA or DODPA and DOTA. Indeed, such a constant cannot be measured directly by potentiometery for the bismuth chelates
A mole equivalent of […] was added to an equimolar solution of DODPA and DOTA at pH=1. The pH was then adjusted to 3 and an NMR spectrum was recorded. After five days at 25° C., it was observed that about 40% of the DODPA had been complexated with bismuth (III). […] Chem., 2003, 42, 2342-2349, is about 30.3.

[3] = Kinetics of complexation with bismuth (III) by UV/Vis spectroscopy; assay type: physicochemical; conditions: 1.65×10^-4 M each, stirring at ambient temperature
Protocol: (§1) The kinetics of complexation of Me-DODPA chelates with bismuth (III) and lead (II) were studied by UV/Vis spectroscopy.
An aqueous solution of Bi(NO3)3.5H2O (1.65×10^−4 M) was added to an aqueous solution of Me-DODPA (1.65×10^−4M). The UV/Vis spectra were recorded at different reaction times.

[4] = Kinetics of complexation with lead (II) by UV/Vis spectroscopy; assay type: physicochemical; conditions: equimolar 0.74×10^-4 M, pH=7
Description: as §1
Referring to FIG. 4, a total complexation of Me-DODPA with lead (II) was observed ten minutes after the equimolar mixing (0.74×10^−4 M) of an aqueous solution of PbCl2 and an aqueous solution of Me-DODPA at pH=7.

[5] = Thermodynamic stability constant pK of lead (II) chelates by potentiometry; assay type: physicochemical; conditions: 25° C., 0.10 M in KNO3
Protocol: (§2) For the DODPA or Me-DODPA chelates with lead (II), the thermodynamic stability constant pK was determined directly by potentiometery at 25° C., for a concentration of 0.10 M in KNO3. […] The pM values corresponding to the non-chelated lead concentrations were therefore computed for the DODPA or Me-DODPA chelates with lead (II) and compared with the value known for the DOTA chelate with lead (II). This value pM is defined by the negative logarithm of the free metal concentration at a pH of 7.4 and with a concentration of Pb(II) of 10 μM and a ligand concentration that is ten times greater. A pM value of 12.3 was measured for the chelate of DODPA and lead (II) and 14.9 for the chelate of Me-DODPA and lead (II) while the known pM value for the complex of DOTA and lead (II) is 18.4

[6] = pM value (free lead concentration) of lead (II) chelates; assay type: physicochemical; conditions: pH 7.4, Pb(II) 10 μM, ligand concentration ten times greater
Protocol: as §2

[7] = Kinetics of dissociation of complexes in DCl 0.1 M by NMR; assay type: physicochemical
Protocol: The kinetics of dissociation of these complexes were also studied by NMR. In this context, the [Bi(Me-DODPA)](NO3) and [Pb(Me-DODPA)] complexes were dissolved in DCl 0.1 M.

[8] = human plasma, ammonium sulfate precipitation

CN1CCN(Cc2cccc(C(=O)[O-])n2)CCN(C)CCN(Cc2cccc(C(=O)[O-])n2)CC1.CN1CCN(Cc2cccc(C(=O)[O-])n2)CCN(C)CCN(Cc2cccc(C(=O)[O-])n2)CC1.CN1CCN(Cc2cccc(C(=O)[O-])n2)CCN(C)CCN(Cc2cccc(C(=O)[O-])n2)CC1.[213Bi+3].[213Bi+3] [(^213Bi(Me-DODPA))^+]
stability in human plasma ([1]; 1 and 2 hours of incubation at ambient temperature): stable in human plasma for at least two half-lives
radioactivity of the supernatant detected at Fr=0.5 (intact chelate), TLC ([1]; human plasma supernatant after protein precipitation): more than 90%
activity in the precipitate after precipitation of plasma proteins [1, 8]: 78.8%
activity in the supernatant after precipitation of plasma proteins [1, 8]: 3.8%

O=C(O)c1cccc(CN2CCNCCN(Cc3cccc(C(=O)O)n3)CCNCC2)n1 [DODPA]
ligand complexated with bismuth (III) in competition with DOTA ([2]; equimolar ligand and DOTA, one mole equivalent Bi, pH 3, five days at 25° C., 10^-2 M): about 40%

CN1CCN(Cc2cccc(C(=O)O)n2)CCN(C)CCN(Cc2cccc(C(=O)O)n2)CC1 [Me-DODPA]
time to total complexation with bismuth (III) [3]: 30 min
bismuth (III) complexated in equimolar mixture of ligand and DOTA ([2]; equimolar mixture of Me-DODPA and DOTA): the totality of the bismuth (III) was complexated by the Me-DODPA
time to total complexation with lead (II) [4]: ten

O=C([O-])c1cccc(CN2CCNCCN(Cc3cccc(C(=O)[O-])n3)CCNCC2)n1.[Pb+2] [Pb(DODPA)]
thermodynamic stability constant pK [5]: 17.09
pM value (negative logarithm of the free metal concentration) [6]: 12.3

CN1CCN(Cc2cccc(C(=O)[O-])n2)CCN(C)CCN(Cc2cccc(C(=O)[O-])n2)CC1.[Pb+2] [[Pb(Me-DODPA)]]
thermodynamic stability constant pK [5]: 18.74
pM value (negative logarithm of the free metal concentration) [6]: 14.9
dissociation of the complex [7]: total dissociation of the complex [Pb(Me-DODPA)] was observed at the end of seven days
